In patent US6130250A, “Veterinary use of a pleuromutilin derivative” (priority 1996, dated 2000):
Where a name gives a salt, the structure may show the parent alone. Read-outs that look alike come from different tables or passages of the source.

Assays:
[1] = test system: Haemophilus pleuropneumoniae; assay: MIC against Haemophilus pleuropneumoniae isolates; format: cell-based; details: for MIC: Actinobacillus pleuropneumoniae, 10 isolates
Experimental: (§1) The minimal inhibitory concentration (MIC) of valnemulin hydrochloride against recent isolates of Pasteurelia multocida, Haemophilus pleuropneumoniae and Haemophilus parasuis originating from porcine respiratory material is determined and compared with tiamulin. […] Three of the Pasteurella isolates were toxigenic strains of Pasteurella multocida. For H. pleuropneumoniae and H. parasuis, on the day before testing a single loopful of each of the pure cultures is inoculated into 10 ml of Todd & Hewitt broth (Unipath CM190) containing 1% donor calf serum and 2 mg per ml of nicotinamide adenine dinucleotide (NAD). For P. multocida, […] a single loopful of each of the pure cultures is inoculated into 10 ml of nutrient broth No. 2 (Unipath CM67) containing 1% donor calf serum. Each of the prepared broth cultures are incubated for 18 hours at 37° C. in 10% CO2. […] For each test compound, standard control cultures of Oxford Staphylococcus aureus NCTC 6571 are also set up to validate the results of the MIC tests. In each case, broth cultures set up from the control organisms are identical to those of the organisms under test. Valnemulin is a hydrochloride, tiamulin is used as the hydrogen fumarate. […] Sensitised agar (Oxoid CM409) containing lysed horse blood (Oxoid SR50) is prepared according to the manufacturer's recommendations and adjusted to pH 7.4 it necessary. […] Four replicate plates are prepared from each dilution. […] After inoculation the growth of the organisms is examined initially by eye followed by microscopic examination on a stereo zoom microscope. The MIC value is taken as the lowest concentration of test compound at which no growth can be detected at the point of inoculation on all four plates by microscopic examination.

Mycoplasma gallisepticum [2] = assay: Challenge study, prevention of Mycoplasma gallisepticum infection; format: in vivo, male broiler chickens; details: for prevention of clinical signs and mortality: tiamulin three doses
Experimental: Groups of male broiler chickens are infected with a virulent strain of Mycoplasma gallisepticum (MG) and each group medicated respectively with one of the following: valnemulin (concentrations of 0.00312, 0.00625, 0.0125 and 0.025%), tiamulin (0.00625, 0.0125 and 0.025%), and tylosin (0.05%). Infection is effected on day 2 by injection of 0.1 ml of Mycoplasma gallisepticum culture containing approximately 10^6 cfu of viable organisms into each lung (Jordan, F. T. W., The Veterinary Record 127 [1990] 502) and medication is commenced within an hour of infection and continued for three consecutive days. There is also an infected untreated group and an uninfected group.

Mycoplasma gallisepticum [3] = assay: Challenge study, treatment of Mycoplasma gallisepticum infection; format: in vivo, male broiler chicks; details: for mortality: valnemulin all three concentrations, tiamulin 0.05%
Text: Groups of male broiler chicks are infected with a virulent strain of Mycoplasma gallisepticum (MG) and each group medicated respectively with valnemulin at a concentration of 0.0125%, 0.025%, 0.05%, tiamulin at the same concentration, tylosin 0.05% and a […], spectinomycin combination (Linco-Spectin) 0.083%. There is also one infected group left untreated and an uninfected group. The chicks are infected at two days of age by the injection of 3.4×10^5 organisms into each lung. Medication in the drinking water is commenced 24 hours later for three successive days except for Linco-Spectin with which treatment was continued for 5 days.

S. hyodysenteriae = assay: Challenge trial: prevention of swine dysentery; format: in vivo, pigs; details: for pigs with S. hyodysenteriae isolated: rectal swabs
Experimental: Two trials were effected where valnemulin fed at various inclusion levels is compared to tiamulin for the prevention of swine dysentery. The severity of disease is assessed by the evidence of clinical disease as determined by clinical scores for body condition, faeces consistency and composition. The excretion of Serpulina hyodysenteriae in faeces, lesions at post-mortem examination, growth rate and feed conversion ratio are also determined.
In the first trial valnemulin hydrochloride fed at 20, 30 and 40 ppm is compared with tiamulin hydrogen fumarate fed at 30 ppm and with unmedicated controls. Five groups of 9 (5 to 6 week old) conventionally reared pigs are used for each treatment group. The pigs are fed unmedicated food for 14 days, then challenged with the standard strain of S. hyodysenteriae (P18A). Challenge is by the oral route on two consecutive days. The medicated feed is introduced on the day after the second challenge. In the second trial a similar procedure is followed except that 4 groups of approximately 9 pigs were used. These are fed valnemulin hydrochloride at 5, 10 and 20 ppm and compared to unmedicated controls. In this trial the pigs used are from an outdoor reared herd and are challenged with a strain of S. hyodysenteriae isolated from an outdoor herd and previously shown to be capable of causing swine dysentery. In both trials the evidence of clinical disease is assessed daily and a clinical score assigned, rectal swabs are taken twice weekly for isolation of S. hyodysenteriae and all pigs are weighed at regular intervals. Food intake is also recorded. A post-mortem examination is carried out 21 days after challenge and the large intestine examined for the presence of lesions. Mucosal scrapings are also taken from 4 areas in the large intestine and cultured for S. hyodysenteriae.

Serpulina hyodysenteriae = assay: MIC determination on agar, 10 S. hyodysenteriae strains; format: cell-based
Pasteurella multocida = assay: MIC against Pasteurella multocida isolates; format: cell-based; details: for MIC: Pasteurella multocida, 10 isolates
Experimental: as §1

[4] = tylosin 0.05%, tiamulin, valnemulin all but the lowest dose
[5] = valnemulin 0.0125 and 0.025%, tylosin 0.05%
[6] = first trial, valnemulin 20 and 40 ppm

C=C[C@]1(C)C[C@@H](OC(=O)CSCCN(CC)CC)[C@]2(C)[C@H](C)CC[C@]3(CCC(=O)[C@H]32)[C@@H](C)[C@@H]1O [tiamulin hydrogen fumarate]
MIC ([1]; 18 h, read-out: MIC mean): 4.5 µg/mL
MIC ([1]; read-out: MIC range): 0.125 to 16 µg/mL
recovery of MG during life or at necropsy (Mycoplasma gallisepticum [2]; tiamulin highest dose (0.025%), tylosin 0.05%): not recovered
weight gain (Mycoplasma gallisepticum [2]; [4]): next but significantly less (p<0.05)
prevention of clinical signs and mortality (Mycoplasma gallisepticum [2]; [5]): equally satisfactory
lesions (Mycoplasma gallisepticum [3]; tiamulin and tylosin): only a few
mortality (Mycoplasma gallisepticum [3]): no more than 5%
pigs with S. hyodysenteriae isolated (S. hyodysenteriae; first trial, tiamulin 30 ppm): 2
isolation of S. hyodysenteriae from mucosal scrapings (S. hyodysenteriae; first trial, tiamulin 30 ppm): isolated from mucosal scrapings taken from all of these affected animals
post-mortem lesions in pigs with clinical signs (S. hyodysenteriae; first trial, tiamulin 30 ppm): typical lesions of swine dysentery
post-mortem lesions in pigs without previous clinical signs (S. hyodysenteriae; first trial, tiamulin 30 ppm): one pig
animals with clinical disease (S. hyodysenteriae; first trial, tiamulin 30 ppm in feed): 2 out of 9
mean clinical score per pig (S. hyodysenteriae; first trial, tiamulin 30 ppm, control 36): 6
prevention of swine dysentery in words (S. hyodysenteriae; tiamulin 30 ppm in feed): did not prevent swine dysentery but reduced the incidence of disease
number of strains with MIC 0.125 μg/ml (Serpulina hyodysenteriae; 10 S. hyodysenteriae strains): 6
number of strains with MIC 0.250 μg/ml (Serpulina hyodysenteriae; 10 S. hyodysenteriae strains): 1
number of strains with MIC 0.500 μg/ml (Serpulina hyodysenteriae; 10 S. hyodysenteriae strains): 1
number of strains with MIC 1 μg/ml (Serpulina hyodysenteriae; 10 S. hyodysenteriae strains): 2
MIC (Pasteurella multocida; 18 h, read-out: MIC mean): 9.2 µg/mL
MIC (Pasteurella multocida; read-out: MIC range): 4 to 16 µg/mL

C=C[C@]1(C)C[C@@H](OC(=O)CSC(C)(C)CNC(=O)[C@H](N)C(C)C)[C@]2(C)[C@H](C)CC[C@]3(CCC(=O)[C@H]32)[C@@H](C)[C@@H]1O [valnemulin hydrochloride, 14-O-[1-[(R)-2-amino-3-methylbutyrylamino]-2-methylpropan-2-ylthioacetyl]mutilin]
MIC ([1]; 18 h, read-out: MIC mean): 0.85 µg/mL
MIC ([1]; read-out: MIC range): 0.125 to 4 µg/mL
mean increase in activity compared with tiamulin ([1]; H. pleuropneumoniae): five and a half fold
weight gain (Mycoplasma gallisepticum [2]; [4]): next but significantly less (p<0.05)
prevention of MG infection vs reference compounds (Mycoplasma gallisepticum [2]; valnemulin 0.0125 and 0.025%): as effective as the reference compounds
prevention of clinical signs and mortality (Mycoplasma gallisepticum [2]; [5]): equally satisfactory
lesions (frequency and severity) (Mycoplasma gallisepticum [2]; valnemulin 0.0125 and 0.025%, tiamulin, tylosin 0.05%): then the two higher doses of valnemulin
effect on lesions (Mycoplasma gallisepticum [2]; valnemulin 2 lower doses (0.00312, 0.00625%)): less effective
birds with MG isolated (Mycoplasma gallisepticum [2]; valnemulin highest dose (0.025%)): only one bird
weight gain (Mycoplasma gallisepticum [2]; valnemulin lowest dose): lowest weight gains
overall efficacy vs comparators (Mycoplasma gallisepticum [3]; valnemulin 0.025% and 0.05% in drinking water): at least as good as or better than tiamulin at 0.05% or tylosin at 0.05% and very much better than Linco-Spectin
recovery of Mycoplasma at 23 days (Mycoplasma gallisepticum [3]; valnemulin 3 groups, tylosin 0.05%): not recovered
mortality (Mycoplasma gallisepticum [3]): no more than 5%
weight gains (Mycoplasma gallisepticum [3]; valnemulin at all concentrations): higher than for the tiamulin treated groups and equal to the tylosin group
lesions (Mycoplasma gallisepticum [3]; valnemulin highest and lowest doses): Lesions were not seen
pigs with S. hyodysenteriae isolated (S. hyodysenteriae; first trial, valnemulin 30 ppm): 2 pigs
isolation of S. hyodysenteriae (S. hyodysenteriae; [6]): not isolated
post-mortem lesions (S. hyodysenteriae; [6]): Lesions were not seen
evidence of disease (S. hyodysenteriae; first trial, valnemulin 20 and 40 ppm in feed): Evidence of disease was not seen
isolation of S. hyodysenteriae from mucosal scrapings (S. hyodysenteriae; first trial, valnemulin 30 ppm): not isolated from mucosal scrapings
pigs with post-mortem lesions (S. hyodysenteriae; first trial, valnemulin 30 ppm): One pig
pigs with clinical disease (S. hyodysenteriae; first trial, valnemulin 30 ppm in feed): 1 pig
inclusion rate down to which effective in preventing swine dysentery (S. hyodysenteriae; in feed): 10 ppm
animals affected (S. hyodysenteriae; second trial, 5 ppm): 5 out of 10
p of mean clinical score vs controls (S. hyodysenteriae; second trial, 5 ppm): < 0.005
p of numbers affected vs controls (S. hyodysenteriae; second trial, 5 ppm): < 0.05
p, heavier than controls at end of trial (S. hyodysenteriae; second trial, 5 ppm): 0.05
other animals with lesions and S. hyodysenteriae in mucosal scrapings (S. hyodysenteriae; second trial, 5 ppm, no clinical signs): 2 animals
pigs with post-mortem lesions (S. hyodysenteriae; second trial, 5 ppm, of 5 pigs with previous signs, S. hyodysenteriae not isolated): 2
pigs with S. hyodysenteriae isolated from rectal swabs (S. hyodysenteriae; second trial, 5 ppm, of the 5 animals affected): 2
mean clinical score (S. hyodysenteriae; second trial, 5 ppm, control 77): 11
first clinical signs after challenge (S. hyodysenteriae; second trial, 5 ppm, control 5 days): 8 days
p, heavier than controls at end of trial (S. hyodysenteriae; second trial, 10 and 20 ppm): < 0.05
clinical signs of disease (S. hyodysenteriae; second trial, 10 or 20 ppm): not seen
isolation of S. hyodysenteriae (S. hyodysenteriae; second trial, 10 or 20 ppm): not isolated
post-mortem lesions (S. hyodysenteriae; second trial, 10 or 20 ppm): Lesions were not seen
prevention of swine dysentery in words (S. hyodysenteriae; valnemulin 5 ppm in feed): did not completely prevent clinical disease or the shedding of spirochaetes
prevention compared with tiamulin (S. hyodysenteriae; valnemulin 10 ppm in feed): clearly more effective than Tiamulin at 30 ppm
number of strains with MIC 0.0156 μg/ml (Serpulina hyodysenteriae; 10 S. hyodysenteriae strains): 2
number of strains with MIC 0.0312 μg/ml (Serpulina hyodysenteriae; 10 S. hyodysenteriae strains): 4
number of strains with MIC 1 μg/ml (Serpulina hyodysenteriae; 10 S. hyodysenteriae strains): 1
MIC times less than those of tiamulin (Serpulina hyodysenteriae; S. hyodysenteriae strains): 2-32 times
susceptibility of S. hyodysenteriae strains (Serpulina hyodysenteriae; all strains): highly susceptible
mean increase in activity compared with tiamulin (Pasteurella multocida; P. multocida): two and a half fold
MIC (Pasteurella multocida; 18 h, read-out: MIC mean): 3.8 µg/mL
MIC (Pasteurella multocida; read-out: MIC range): 2 to 8 µg/mL
